Data as given in patent US8802597B2, “Herbicidal pyrimidines” (E I du Pont de Nemours and Company, priority 2003, dated 2014).

Experiments:
Test in all cases: Test C pre/postemergence
Assay type in all cases: in vivo
Conditions in all cases: Postemergence
kochia (Kochia scoparia) = tested on: kochia (Kochia scoparia)
Summary of the method: (§1)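 We sprayed seeded pots preemergence and 2–18 cm seedlings postemergence with test chemicals in a non-phytotoxic solvent mixture including surfactant. Greenhouse plants were visually compared with untreated controls at 12 to 14 days and scored 0 (no effect) to 100 (complete control).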

[1] = tested on: pigweed (Amaranthus retroflexus)
Summary of the method: as §1

[2] = tested on: common ragweed (Ambrosia elatior)
Summary of the method: as §1

[3] = tested on: yellow nutsedge (Cyperus esculentus)
Summary of the method: as §1

[4] = tested on: goosegrass (Eleusine indica)
Summary of the method: as §1

[5] = tested on: lambsquarters (Chenopodium album)
Summary of the method: as §1

[6] = tested on: cocklebur (Xanthium strumarium)
Summary of the method: as §1

[7] = tested on: Surinam grass (Brachiaria decumbens)
Summary of the method: as §1

corn (Zea mays) = tested on: corn (Zea mays)
Summary of the method: as §1

[8] = tested on: crabgrass (Digitaria sanguinalis)
Summary of the method: as §1

[9] = tested on: velvetleaf (Abutilon theophrasti)
Summary of the method: as §1

[10] = 125 g ai/ha, scale 0 to 100 (0 no effect, 100 complete control)

COC(=O)c1nc(C2CC2)nc(N)c1I [Compound 7] was tested, and the pest or weed control at 62 g/ha (kochia (Kochia scoparia); Bassia scoparia, post-emergence, 62 g ai/ha, scale 0 to 100 (0 no effect, 100 complete control), read-out: Kochia plant response rating) was 40%, the pest or weed control at 125 g/ha (kochia (Kochia scoparia); Bassia scoparia, post-emergence, 125 g ai/ha, scale 0 to 100 (0 no effect, 100 complete control), read-out: Kochia plant response rating) was 65% and the pest or weed control at 250 g/ha (kochia (Kochia scoparia); Bassia scoparia, post-emergence, 250 g ai/ha, scale 0 to 100, read-out: Plant response rating, Kochia) was 70%. The pest or weed control at 500 g/ha (kochia (Kochia scoparia); Bassia scoparia, post-emergence, 500 g ai/ha, scale 0 to 100, read-out: Plant response rating, Kochia) was 80%, the pest or weed control at 62 g/ha ([1]; Amaranthus retroflexus, post-emergence, 62 g ai/ha, scale 0 to 100 (0 no effect, 100 complete control), read-out: Pigweed plant response rating) was 20% and the pest or weed control at 125 g/ha ([1]; Amaranthus retroflexus, post-emergence, 125 g ai/ha, scale 0 to 100 (0 no effect, 100 complete control), read-out: Pigweed plant response rating) was 40%. The pest or weed control at 250 g/ha ([1]; Amaranthus retroflexus, post-emergence, 250 g ai/ha, scale 0 to 100, read-out: Plant response rating, Pigweed) was 40%, the pest or weed control at 500 g/ha ([1]; Amaranthus retroflexus, post-emergence, 500 g ai/ha, scale 0 to 100, read-out: Plant response rating, Pigweed) was 55% and the pest or weed control at 62 g/ha ([2]; Ambrosia artemisiifolia, post-emergence, 62 g ai/ha, scale 0 to 100 (0 no effect, 100 complete control), read-out: Ragweed plant response rating) was 25%. It also gave a pest or weed control at 125 g/ha ([2]; Ambrosia artemisiifolia, post-emergence, 125 g ai/ha, scale 0 to 100 (0 no effect, 100 complete control), read-out: Ragweed plant response rating) of 35%, a pest or weed control at 250 g/ha ([2]; Ambrosia artemisiifolia, post-emergence, 250 g ai/ha, scale 0 to 100, read-out: Plant response rating, Ragweed) of 65% and a pest or weed control at 500 g/ha ([2]; Ambrosia artemisiifolia, post-emergence, 500 g ai/ha, scale 0 to 100, read-out: Plant response rating, Ragweed) of 75%. For the same compound, the pest or weed control at 62 g/ha ([3]; Cyperus, post-emergence, 62 g ai/ha, scale 0 to 100 (0 no effect, 100 complete control), read-out: Nutsedge, Yellow plant response rating) was 0%, the pest or weed control at 125 g/ha ([3]; Cyperus, post-emergence, 125 g ai/ha, scale 0 to 100 (0 no effect, 100 complete control), read-out: Nutsedge, Yellow plant response rating) was 0% and the pest or weed control at 250 g/ha ([3]; Cyperus, post-emergence, 250 g ai/ha, scale 0 to 100, read-out: Plant response rating, Nutsedge, Yellow) was 0%. It also gave a pest or weed control at 500 g/ha ([3]; Cyperus, post-emergence, 500 g ai/ha, scale 0 to 100, read-out: Plant response rating, Nutsedge, Yellow) of 0%, a pest or weed control at 62 g/ha ([4]; Eleusine indica, post-emergence, 62 g ai/ha, scale 0 to 100 (0 no effect, 100 complete control), read-out: Goosegrass plant response rating) of 0% and a pest or weed control at 125 g/ha ([4]; Eleusine indica, post-emergence, 125 g ai/ha, scale 0 to 100 (0 no effect, 100 complete control), read-out: Goosegrass plant response rating) of 0%. For the same compound, the pest or weed control at 250 g/ha ([4]; Eleusine indica, post-emergence, 250 g ai/ha, scale 0 to 100, read-out: Plant response rating, Goosegrass) was 0%, the pest or weed control at 500 g/ha ([4]; Eleusine indica, post-emergence, 500 g ai/ha, scale 0 to 100, read-out: Plant response rating, Goosegrass) was 0% and the pest or weed control at 62 g/ha ([5]; Chenopodium album, post-emergence, 62 g ai/ha, scale 0 to 100 (0 no effect, 100 complete control), read-out: Lambsquarters plant response rating) was 50%. It also gave a pest or weed control at 125 g/ha ([5]; Chenopodium album, post-emergence, 125 g ai/ha, scale 0 to 100 (0 no effect, 100 complete control), read-out: Lambsquarters plant response rating) of 60%, a pest or weed control at 250 g/ha ([5]; Chenopodium album, post-emergence, 250 g ai/ha, scale 0 to 100, read-out: Plant response rating, Lambsquarters) of 70% and a pest or weed control at 500 g/ha ([5]; Chenopodium album, post-emergence, 500 g ai/ha, scale 0 to 100, read-out: Plant response rating, Lambsquarters) of 80%. For the same compound, the pest or weed control at 62 g/ha ([6]; Xanthium strumarium, post-emergence, 62 g ai/ha, scale 0 to 100 (0 no effect, 100 complete control), read-out: Cocklebur plant response rating) was 30%, the pest or weed control at 125 g/ha ([6]; Xanthium strumarium, post-emergence, 125 g ai/ha, scale 0 to 100 (0 no effect, 100 complete control), read-out: Cocklebur plant response rating) was 30% and the pest or weed control at 250 g/ha ([6]; Xanthium strumarium, post-emergence, 250 g ai/ha, scale 0 to 100, read-out: Plant response rating, Cocklebur) was 30%. It also gave a pest or weed control at 500 g/ha ([6]; Xanthium strumarium, post-emergence, 500 g ai/ha, scale 0 to 100, read-out: Plant response rating, Cocklebur) of 30%, a pest or weed control at 125 g/ha ([7]; Urochloa decumbens, post-emergence, 125 g ai/ha, scale 0 to 100 (0 no effect, 100 complete control), read-out: Surinam Grass plant response rating) of 0% and a pest or weed control at 500 g/ha ([7]; Urochloa decumbens, post-emergence, 500 g ai/ha, scale 0 to 100, read-out: Plant response rating, Surinam Grass) of 0%. For the same compound, the pest or weed control at 62 g/ha ([7]; Urochloa decumbens, post-emergence, 62 g ai/ha, scale 0 to 100 (0 no effect, 100 complete control), read-out: Surinam Grass plant response rating) was 0%, the pest or weed control at 250 g/ha ([7]; Urochloa decumbens, post-emergence, 250 g ai/ha, scale 0 to 100, read-out: Plant response rating, Surinam Grass) was 0% and the Corn plant response rating (crop injury, 0 = no effect, 100 = complete kill) at 62 g/ha (corn (Zea mays); Zea mays, post-emergence, 62 g ai/ha, scale 0 to 100 (0 no effect, 100 complete control), read-out: Corn plant response rating) was 0%. For the same compound, the Corn plant response rating (crop injury, 0 = no effect, 100 = complete kill) at 125 g/ha (corn (Zea mays); Zea mays, post-emergence, 125 g ai/ha, scale 0 to 100 (0 no effect, 100 complete control), read-out: Corn plant response rating) was 0%, the Corn plant response rating (crop injury, 0 = no effect, 100 = complete kill) at 250 g/ha (corn (Zea mays); Zea mays, post-emergence, 250 g ai/ha, scale 0 to 100) was 0% and the Corn plant response rating (crop injury, 0 = no effect, 100 = complete kill) at 500 g/ha (corn (Zea mays); Zea mays, post-emergence, 500 g ai/ha, scale 0 to 100) was 0%. The pest or weed control at 62 g/ha ([8]; Digitaria sanguinalis, post-emergence, 62 g ai/ha, scale 0 to 100 (0 no effect, 100 complete control), read-out: Crabgrass plant response rating) was 0%, the pest or weed control at 125 g/ha ([8]; Digitaria sanguinalis, post-emergence, 125 g ai/ha, scale 0 to 100 (0 no effect, 100 complete control), read-out: Crabgrass plant response rating) was 0% and the pest or weed control at 250 g/ha ([8]; Digitaria sanguinalis, post-emergence, 250 g ai/ha, scale 0 to 100, read-out: Plant response rating, Crabgrass) was 5%. It also gave a pest or weed control at 500 g/ha ([8]; Digitaria sanguinalis, post-emergence, 500 g ai/ha, scale 0 to 100, read-out: Plant response rating, Crabgrass) of 25%, a pest or weed control at 62 g/ha ([9]; Abutilon theophrasti, post-emergence, 62 g ai/ha, scale 0 to 100 (0 no effect, 100 complete control), read-out: Velvetleaf plant response rating) of 0% and a pest or weed control at 125 g/ha ([9]; Abutilon theophrasti, post-emergence, 125 g ai/ha, scale 0 to 100 (0 no effect, 100 complete control), read-out: Velvetleaf plant response rating) of 10%. For the same compound, the pest or weed control at 250 g/ha ([9]; Abutilon theophrasti, post-emergence, 250 g ai/ha, scale 0 to 100, read-out: Plant response rating, Velvetleaf) was 35% and the pest or weed control at 500 g/ha ([9]; Abutilon theophrasti, post-emergence, 500 g ai/ha, scale 0 to 100, read-out: Plant response rating, Velvetleaf) was 40%.

With Nc1nc(-c2ccc(Br)cc2)nc(C(=O)O)c1Br [Compound 136] the “Plant response rating (scale of 0 to 100), Kochia” value (kochia (Kochia scoparia); 16 g ai/ha) was 75, the “Plant response rating (scale of 0 to 100), Kochia” value (kochia (Kochia scoparia); 31 g ai/ha) was 80 and the “Plant response rating (scale of 0 to 100), Kochia” value (kochia (Kochia scoparia); 62 g ai/ha) was 90. For the same compound, the “Kochia plant response rating” value (kochia (Kochia scoparia); [10]) was 90, the “Plant response rating (scale of 0 to 100), Pigweed” value ([1]; 16 g ai/ha) was 90 and the “Plant response rating (scale of 0 to 100), Pigweed” value ([1]; 31 g ai/ha) was 100. For the same compound, the “Plant response rating (scale of 0 to 100), Pigweed” value ([1]; 62 g ai/ha) was 100, the “Pigweed plant response rating” value [1, 10] was 100 and the “Plant response rating (scale of 0 to 100), Ragweed” value ([2]; 16 g ai/ha) was 75. The “Plant response rating (scale of 0 to 100), Ragweed” value ([2]; 31 g ai/ha) was 85, the “Plant response rating (scale of 0 to 100), Ragweed” value ([2]; 62 g ai/ha) was 90 and the “Ragweed plant response rating” value [2, 10] was 95. The “Plant response rating (scale of 0 to 100), Nutsedge, Yellow” value ([3]; 16 g ai/ha) was 60, the “Plant response rating (scale of 0 to 100), Nutsedge, Yellow” value ([3]; 31 g ai/ha) was 65 and the “Plant response rating (scale of 0 to 100), Nutsedge, Yellow” value ([3]; 62 g ai/ha) was 75. The “Nutsedge, Yellow plant response rating” value [3, 10] was 75, the “Plant response rating (scale of 0 to 100), Goosegrass” value ([4]; 16 g ai/ha) was 50 and the “Plant response rating (scale of 0 to 100), Goosegrass” value ([4]; 31 g ai/ha) was 65. For the same compound, the “Plant response rating (scale of 0 to 100), Goosegrass” value ([4]; 62 g ai/ha) was 75, the “Goosegrass plant response rating” value [4, 10] was 80 and the “Plant response rating (scale of 0 to 100), Lambsquarters” value ([5]; 16 g ai/ha) was 95. The “Plant response rating (scale of 0 to 100), Lambsquarters” value ([5]; 31 g ai/ha) was 95, the “Plant response rating (scale of 0 to 100), Lambsquarters” value ([5]; 62 g ai/ha) was 95 and the “Lambsquarters plant response rating” value [5, 10] was 95. For the same compound, the “Plant response rating (scale of 0 to 100), Cocklebur” value ([6]; 16 g ai/ha) was 95, the “Plant response rating (scale of 0 to 100), Cocklebur” value ([6]; 31 g ai/ha) was 100 and the “Plant response rating (scale of 0 to 100), Cocklebur” value ([6]; 62 g ai/ha) was 100. The “Cocklebur plant response rating” value [6, 10] was 100, the “Plant response rating (scale of 0 to 100), Surinam Grass” value ([7]; 16 g ai/ha) was 55 and the “Plant response rating (scale of 0 to 100), Surinam Grass” value ([7]; 31 g ai/ha) was 65. The “Plant response rating (scale of 0 to 100), Surinam Grass” value ([7]; 62 g ai/ha) was 65, the “Surinam Grass plant response rating” value [7, 10] was 70 and the “Plant response rating (scale of 0 to 100), Corn” value (corn (Zea mays); 16 g ai/ha) was 35. For the same compound, the “Plant response rating (scale of 0 to 100), Corn” value (corn (Zea mays); 31 g ai/ha) was 35, the “Plant response rating (scale of 0 to 100), Corn” value (corn (Zea mays); 62 g ai/ha) was 65 and the “Corn plant response rating” value (corn (Zea mays); [10]) was 75. The “Plant response rating (scale of 0 to 100), Crabgrass” value ([8]; 16 g ai/ha) was 60, the “Plant response rating (scale of 0 to 100), Crabgrass” value ([8]; 31 g ai/ha) was 75 and the “Plant response rating (scale of 0 to 100), Crabgrass” value ([8]; 62 g ai/ha) was 75. The “Crabgrass plant response rating” value [8, 10] was 75, the “Plant response rating (scale of 0 to 100), Velvetleaf” value ([9]; 16 g ai/ha) was 85 and the “Plant response rating (scale of 0 to 100), Velvetleaf” value ([9]; 31 g ai/ha) was 85. For the same compound, the “Plant response rating (scale of 0 to 100), Velvetleaf” value ([9]; 62 g ai/ha) was 90 and the “Velvetleaf plant response rating” value [9, 10] was 95.
